Test results from US9849101B2, “Method for enhancing amidohydrolase activity of fatty acid amide hydrolase” (Research Foundation of the City University of New York, priority 2013, dated 2017).
pIC50: −log10 of the molar value.

Experiments:
[1] = system: Arabidopsis thaliana wild type (Col-0) seedlings; assay: Arabidopsis seedling growth (cotyledon size, primary root elongation); assay type: in vivo
rat E18 cortical neurons = assay: Viability of cultured primary neurons (calcein fluorescence), tBHP oxidative stress; assay type: cell-based
Procedure: Commercially obtained Sprague/Dawley rat E18 cortical tissue was allowed to settle for 5-10 minutes at room temperature, the shipping media was removed (reserved at 37° C.), and the tissue was enzymatically treated with NeuroPapain dissolved in NeuroPrep Medium (2 mg/ml, 2.5 ml) for 28 minutes at 37° C. with gentle swirling every 7 minutes. Treated tissue was centrifuged for 1.5 minutes at 200×g and the cells were dissociated by gentle trituration in 1 ml of the reserved shipping medium. Cells were collected by centrifugation as above and re-suspended by gentle trituration in 1 ml of NeuroPure plating medium. Viable cells were counted, (Nexcelom Auto T4; Nexcelom Bioscience LLC. Lawrence, Mass.) re-suspended in 9 ml of NeuroPure plating medium plus enough Neurobasal medium (supplemented with B27; GlutaMAX I, 2 mM; Penicillin, 50 U/ml; Streptomycin, 50 μg/ml) to achieve a density of 250,000 cells/ml, and seeded in BD PureCoat™ black-walled amine-coated 96-well plates in a 100 μl volume. […]
Oxidative stress was induced by the addition of concentrated tert-butyl hydrogen peroxide (tBHP) to achieve a final concentration of 7.5 μM. […] For each condition, six replicate wells were measured and the mean value was used for statistical analyses. Data was analyzed and plotted using Prism 5.0 (GraphPad Software Inc., La Jolla, Calif.). […]

rat brain FAAH = target: T1, rat brain FAAH (Rattus norvegicus, UniProt P97612); conditions: reported value; read-out: IC50 for anandamide hydrolysis; cited from earlier work
T1 construct: host or cells: rat brain
T1 sequence (P97612 1-579): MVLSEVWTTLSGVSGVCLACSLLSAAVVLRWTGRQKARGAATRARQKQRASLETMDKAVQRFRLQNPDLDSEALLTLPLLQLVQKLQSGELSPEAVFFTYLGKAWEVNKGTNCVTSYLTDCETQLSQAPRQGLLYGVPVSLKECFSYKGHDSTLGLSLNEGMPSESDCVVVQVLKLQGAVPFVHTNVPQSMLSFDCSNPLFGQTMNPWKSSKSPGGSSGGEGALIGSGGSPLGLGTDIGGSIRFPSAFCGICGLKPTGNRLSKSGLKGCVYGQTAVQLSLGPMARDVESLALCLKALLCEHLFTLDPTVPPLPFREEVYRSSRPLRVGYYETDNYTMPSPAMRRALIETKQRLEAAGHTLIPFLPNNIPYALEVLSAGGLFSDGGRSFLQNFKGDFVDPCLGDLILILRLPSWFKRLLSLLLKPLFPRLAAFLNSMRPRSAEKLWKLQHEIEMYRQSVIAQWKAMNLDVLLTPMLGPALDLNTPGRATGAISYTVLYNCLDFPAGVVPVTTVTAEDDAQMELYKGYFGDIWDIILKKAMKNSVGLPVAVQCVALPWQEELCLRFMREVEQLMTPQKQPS

[2] = target: T2, Arabidopsis thaliana FAAH (AT-FAAH) (Arabidopsis thaliana, UniProt Q7XJJ7); assay: NAE amidohydrolase assay on purified recombinant At-FAAH; assay type: biochemical
T2 construct: made in house; host or cells: E. coli TOP10
T2 sequence (Q7XJJ7 1-607): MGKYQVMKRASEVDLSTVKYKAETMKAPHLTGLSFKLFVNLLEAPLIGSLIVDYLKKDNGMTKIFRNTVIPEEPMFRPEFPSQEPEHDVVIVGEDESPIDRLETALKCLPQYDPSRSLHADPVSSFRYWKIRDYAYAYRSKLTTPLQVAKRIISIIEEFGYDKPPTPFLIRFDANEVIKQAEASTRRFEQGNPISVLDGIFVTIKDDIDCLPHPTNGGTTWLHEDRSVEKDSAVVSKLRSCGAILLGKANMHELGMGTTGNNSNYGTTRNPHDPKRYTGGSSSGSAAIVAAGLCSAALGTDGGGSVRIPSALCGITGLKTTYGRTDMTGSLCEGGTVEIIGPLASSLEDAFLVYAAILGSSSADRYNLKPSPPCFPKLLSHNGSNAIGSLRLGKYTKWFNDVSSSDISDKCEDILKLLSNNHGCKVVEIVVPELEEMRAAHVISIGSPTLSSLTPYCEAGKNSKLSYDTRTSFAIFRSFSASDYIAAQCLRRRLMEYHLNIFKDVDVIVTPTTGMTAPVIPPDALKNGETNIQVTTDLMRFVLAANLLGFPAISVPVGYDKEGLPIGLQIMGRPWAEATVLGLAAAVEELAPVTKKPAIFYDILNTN

rat FAAH [3] = target: T3, rat FAAH (Rattus norvegicus, UniProt P97612); assay: NAE amidohydrolase assay on purified recombinant rat FAAH; assay type: biochemical
T3 construct: made in house; host or cells: E. coli TOP10
T3 sequence (P97612 1-579): T1 sequence (P97612 1-579)

At-FAAH = target: T4, At-FAAH (Arabidopsis thaliana, UniProt Q7XJJ7); assay: Ethanolamine inhibition assay, At-FAAH; assay type: biochemical
T4 construct: made in house; host or cells: E. coli TOP10
T4 sequence (Q7XJJ7 1-607): T2 sequence (Q7XJJ7 1-607)

rat FAAH [4] = target: T3, rat FAAH; assay: Ethanolamine inhibition assay, rat FAAH; assay type: biochemical
[5] = target: T5, NAE amidohydrolase activity from crude seedling extracts (Arabidopsis thaliana, UniProt Q7XJJ7); assay: Plant amidohydrolase assay on crude seedling protein extract; assay type: biochemical; conditions: [1-14C]-NAE 12:0, 11-d-old seedlings, 2 hours
T5 construct: from tissue; host or cells: 11-day-old Arabidopsis thaliana Col-0 seedlings, total solubilized protein
T5 sequence (Q7XJJ7 1-607): T2 sequence (Q7XJJ7 1-607)

[6] = 2 μg protein, 100 μM-300 μM substrate, TLC
[7] = 100 μM [1-14C]-NAE 12:0 with 100 μM compound
[8] = 100 μM compound, up to 10 mM ethanolamine, 100 μM [1-14C]-NAE 12:0

## CCCCCCCCCCCC(=O)NCCO [NAE 12:0, N-lauroylethanolamine, reference compound]
[1]; applied exogenously
  seedling growth on exogenous application: inhibits seedling growth

## CCCCCCCCCCCCCCCC(=O)NCCO [NAE 16:0, N-palmitoylethanolamine]
Rat E18 cortical neurons; 1 hour prior to addition of 1 nM cardanol-EA
  reversal of cardanol-induced exacerbation of tBHP mediated cell death: dose-dependent reversal
Rat brain FAAH
  pIC50: 5.29

## CCCCCCCCCCCCCCCc1cccc(OCC(=O)NCCO)c1 [PDP-EA, N-(2-hydroxyethyl)-2-(3-pentadecylphenoxy)acetamide]
[2]
  apparent Vmax: increased
[2]; [6]
  hydrolysis of the compound as substrate to acid form and ethanolamine: not suitable substrates
[2]; [7]
  amidohydrolase activity toward NAE: increased
[2]; 100 μM compound, different [1-14C]-NAEs
  increase of activity by a factor: about 4±1.2
[2]; NAE 12:0 substrate, 100 μM compound, T-test confidence level 95%
  Km app versus solvent control: No statistical difference
[2]; heat-denaturated enzyme, 100 μM compound
  non-enzymatic hydrolysis of NAE to free fatty acid: no activity
Rat FAAH [3]
  apparent Vmax: increased
Rat FAAH [3]; [6]
  hydrolysis of the compound as substrate to acid form and ethanolamine: not suitable substrates
Rat FAAH [3]; [7]
  amidohydrolase activity toward NAE: increased
Rat FAAH [3]; 100 μM compound, NAE 16:0 and NAE 12:0
  increase of activity by a factor: about 5±2.2
Rat FAAH [3]; NAE 20:4 substrate, 100 μM compound
  Kcat versus solvent control: increase in Kcat
At-FAAH; [8]
  protection from ethanolamine product inhibition: relieved this ethanolamine inhibition almost completely
Rat FAAH [4]; [8]
  protection from ethanolamine product inhibition: relieved this ethanolamine inhibition almost completely
[1]; 30 μM NAE 12:0, 20 μM compound, 11 days
  reversal of negative seedling growth effects of exogenous NAE 12:0: reverse partially
[1]; compound alone, 11 days
  seedling growth (cotyledon size), compound alone: positive impact on seedling growth
[1]; with NAE 12:0, 11 days
  reversal of negative effects of NAE 12:0 on cotyledon size: partially reversed
[5]
  NAE amidohydrolase activity of crude seedling extracts: enhancement

## NC(=O)c1cccc(-c2cccc(OC(=O)NC3CCCCC3)c2)c1 [URB597]
Rat E18 cortical neurons
  reversal of cardanol-induced exacerbation of tBHP mediated cell death by FAAH inhibitor: completely reversed

## NCCO [ethanolamine]
At-FAAH; 0-100 mM ethanolamine
  NAE hydrolase activity at increasing ethanolamine concentrations: dose-dependent reduction
Rat FAAH [4]; 0-100 mM ethanolamine
  NAE hydrolase activity at increasing ethanolamine concentrations: dose-dependent reduction
